According to patent publication US8415364B2, “Method of preventing or treating glaucoma” (Duke University, priority 2003, dated 2013):

Experiments:
[1] = tested on: myosin light chain (MLC) phosphorylation; test: MLC phosphorylation by urea/glycerol PAGE and Western blot in PTM cells; format: cell-based, porcine
Protocol: (§1) Porcine primary trabecular meshwork (PTM) and ciliary muscle cells (PCM) were cultured and treated with lovastatin or compactin at concentrations of 25 μM and 50 μM. Effects on actin stress fibers (phalloidin staining) and focal adhesion formation (vinculin) were evaluated by immunofluorescence staining. Urea/glycerol polyacrylamide gel electrophoresis and Western blot analysis were utilized to investigate the effects of statins on myosin light chain (MLC) phosphorylation. Changes in cell shape were recorded using the phase contrast microscope. A constant flow organ culture perfusion system was used to measure outflow facility in perfused porcine eye anterior segments.

[2] = tested on: Porcine primary trabecular meshwork (PTM) cells; test: Cell shape by phase contrast microscopy in PTM cells; format: cell-based
Protocol: as §1

[3] = tested on: perfused porcine eye anterior segments; test: Constant flow organ culture perfusion of porcine eye anterior segments
Protocol: as §1

[4] = tested on: Porcine primary trabecular meshwork (PTM) cells; test: Actin stress fibers (phalloidin) and focal adhesion (vinculin) immunofluorescence staining in PTM cells; format: cell-based
Protocol: as §1

[5] = PTM cells, within 24 hours of drug administration

Row | Compound | MLC phosphorylation [1] | changes in cell shape ([2]; 25 μM and 50 μM) | reversibility of morphological changes ([2]; upon drug withdrawal) | drop in intraocular pressure ([3]; 100 μM, at 72 hours, control eyes 22% reduction, ongoing study) | ability to decrease IOP ([3]; organ culture perfusion model) | effect on actin stress fibers [4, 5] | effect on focal adhesions [4, 5] | effect on lovastatin-induced changes in cell shape and cytoskeletal organization ([4]; supplementation of cell culture media containing lovastatin)
1 | CC[C@H](C)C(=O)O[C@H]1C[C@@H](C)C=C2C=C[C@H](C)[C@H](CC[C@@H]3C[C@@H](O)CC(=O)O3)[C@H]21 [lovastatin] | marked reduction | dramatic changes in cell shape | reversible upon drug withdrawal | 48% | ability to decrease IOP | actin depolymerization | loss of focal adhesions | –
2 | CC(C)=CCC/C(C)=C/CC/C(C)=C/CC/C(C)=C/COP(=O)(O)OP(=O)(O)O [geranylgeranyl pyrophosphate] | – | – | – | – | – | – | – | completely reversed
